Source: ChEMBL document CHEMBL1135963, “Synthesis and vasorelaxant activity of new coumarin and furocoumarin derivatives” (Bioorg Med Chem Lett, 2002)

Columns and labels:
[1] = species: Rattus norvegicus; test: Compound was tested for the vasorelaxation in rat aorta rings pre-contracted with KCl 60 mM; type: functional, organism-based
[2] = species: Rattus norvegicus; test: Compound was tested for the vasorelaxation in rat aorta rings pre-contracted with noradrenaline (NA) 10 uM; type: functional, organism-based
[3] = species: Rattus norvegicus; test: Antagonist PD'2 which is the negative logarithm of the molar concentration of antagonist required to cause 50% depression of the maximal response of the agonist was determined; type: functional
[4] = species: Rattus norvegicus; test: Effect on concentration dependent contractions in rat aortic rings expressed as pD2 value; type: functional, Aorta

Structure (SMILES)	IC50 [1]	IC50 [2]	PD'2 [3]	pD2 [4]
CCOC(=O)COc1ccc2c(C)c(CCN(CC)CC)c(=O)oc2c1 [CHROMONAR]	> 1000 µM	> 1000 µM		
CC(=O)COc1ccc2c(CO)cc(=O)oc2c1OCC(C)=O	> 1000 µM	> 1000 µM		
NC[C@H](O)c1ccc(O)c(O)c1 [NOREPINEPHRINE]				6.07
Cc1coc2cc3oc(=O)cc(CO)c3cc12	54 µM	68.4 µM	4.73	

The next lines start with results.

IC50 [1]	IC50 [2]	Structure (SMILES)	PD'2 [3]	pD2 [4]
1010 µM	933 µM	COc1c(O)ccc2c(CO)cc(=O)oc12	2.57	
93.3 µM	52.6 µM	CC(=O)COc1c2occ(C)c2cc2c(CO)cc(=O)oc12		
316 µM	309 µM	COc1c2occc2c(OC)c2c(=O)cc(C)oc12 [KHELLIN]	4.46	
42.6 µM	42 µM	COc1c2occ(C)c2cc2c(CO)cc(=O)oc12		
